Source: USRE40198E1, “Method and device for electrochemical immunoassay of multiple analytes” (Roche Diagnostics Operations, Inc., priority 1998, dated 2008)

Assays:
Sheep B<HbAo> antibody = assay: Inhibition of Ao conjugate current by antibody; type: binding
[1] = Stability of mediator labels (analytical HPLC, % inhibition values over time); type: physicochemical; details: for Stability in solution: stored as solution
Procedure: (§1) Samplers frozen at−20° C. appear to be stable.

Zymed rabbit antibodies = assay: Inhibition of Ao conjugate current by antibody; type: binding
HbAo antibody = assay: Reversal of antibody inhibition with AoHB-peptide #1; type: binding
[2] = system: hemoglobin Alc antibody PAB IS (polyclonal, immunosorbent purified); assay: Inhibition of osmium mediator-peptide conjugate current by antibody (enzyme amplified amperometry, palladium electrodes); type: binding, sheep; details: for Inhibition with Antibody, PAB IS: maximum inhibition
Description: 3. Antibodies for the analytes (HbAlc and HbAO) which react specifically with the N-terminal peptides which have been incorporated into the conjugate are provided by standard methods for producing polyclonal antibodies. In this case, sheep were immunized with carrier proteins to which were conjugated the synthetic peptide sequences for HbAlc and HbA0. Following the appropriate immunization schedule, the sheep were bled, and the antibody isolated from the blood via ion exchange chromatography, followed by immunosorbent purification on a column of the same N-terminal peptide with a different linker.
(§2) 4. Appropriate stoichiometry of the reaction was determined for the two reactions independently by methods standard for immunoassay development. A solution containing a fixed amount of labeled conjugate was mixed with a solution with varying amounts of antibody, and, following an appropriate incubation period, the amount of free conjugate remaining was measured on the IDA electrode using the procedure described above.
(§3) Polyclonal DE (ion-exchange) purified sheep antibody is used in the TinaQuant HbAlc assay. IS (immunosorbent) antibody is prepared using standard IS purification methodology. Samples of a monoclonal antibody were also obtained for evaluation. Inhibition curves were performed in solution with all mixing occurring in microcentrifuge tubes. Inhibition curves with the three hemoglobin Alc antibodies (PAB IS, PAB DE, and MAB) were generated by fixing OS-DSG-Alc at 5μM and varying the antibody concentration. […] From the inhibition curves we were able to select reasonable concentrations of antibody for maximum reversal with Alc samples.
(§4) While these feasibility studies for a HbAlc immunoassay used an enzyme mediated amplification method (Glucdor/PQQ/glucose was used to regenerate reduced mediator after oxidation at the electrode surface providing a higher diffusion controlled current is given by the cottrell equation), they are considered to be indicative of results attainable with the use of IDA electrodes with bipotentiostatic control is most preferred for measuring mediator labeled conjugates in accordance with this invention.

[3] = system: hemoglobin Alc antibody PAB DE (polyclonal, ion-exchange purified); assay: as above; type: binding, sheep; details: for Inhibition with Antibody, PAB DE: maximum inhibition
Procedure: as §2, §3, §4

[4] = system: hemoglobin Alc antibody MAB (monoclonal); assay: as above; type: binding; details: for Inhibition with Antibody, MAB: maximum inhibition
Procedure: as §2, §3, §4

[5] = system: hemoglobin Alc antibodies (PAB IS, PAB DE, MAB); assay: Reversal of antibody inhibition with BSA-Alc polyhaptan; type: binding
Description: Reversal curves were then generated using a series of dilutions ofBAS-Alc-polyhaptan with a−1:1 Alc:BAS. The BAS-Alc acts as our sample and binds to the antibody.

HbAlc antibodies = assay: Inhibition curves of mediator labels, antibody not given; type: binding
Procedure: as §3, §1

glucose oxidase = glucose oxidase (Aspergillus niger, UniProt P13006); details: with glucose oxidase; cited from earlier work
Sequence of glucose oxidase (P13006 17-605, species assumed): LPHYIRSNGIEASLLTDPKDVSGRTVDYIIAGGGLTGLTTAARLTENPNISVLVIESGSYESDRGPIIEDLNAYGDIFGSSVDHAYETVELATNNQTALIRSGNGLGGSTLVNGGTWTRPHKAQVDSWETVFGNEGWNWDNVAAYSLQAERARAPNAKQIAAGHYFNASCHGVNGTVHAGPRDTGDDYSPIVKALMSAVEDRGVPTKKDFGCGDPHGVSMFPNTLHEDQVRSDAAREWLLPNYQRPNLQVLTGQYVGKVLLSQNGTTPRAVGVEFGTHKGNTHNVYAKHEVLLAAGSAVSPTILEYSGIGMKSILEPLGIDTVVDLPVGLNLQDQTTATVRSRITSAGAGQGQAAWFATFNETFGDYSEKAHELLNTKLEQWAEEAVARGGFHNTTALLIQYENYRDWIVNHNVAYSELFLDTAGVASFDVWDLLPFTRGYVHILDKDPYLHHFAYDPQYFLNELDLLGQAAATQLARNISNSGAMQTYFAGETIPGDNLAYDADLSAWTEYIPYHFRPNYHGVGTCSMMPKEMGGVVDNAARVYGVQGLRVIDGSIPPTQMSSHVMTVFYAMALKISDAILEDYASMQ

CC(C)CC(NC(=O)C(Cc1cnc[nH]1)NC(=O)C(N)C(C)C)C(=O)NC(C(=O)NC(CCCCNC(=O)CCCCCN1C(=O)CC(SCC(=O)NCCc2c[n+]([Os]34([Cl])([n+]5ccccc5-c5cccc[n+]53)[n+]3ccccc3-c3cccc[n+]34)c[nH]2)C1=O)C(=O)O)C(C)O (centres unmarked) [Os-SATA-Ao]
Inhibition with Antibody, Sheep B<HbAo> (Sheep B<HbAo> antibody): ≤ 84%
Stability in solution [1]: unstable in solution. Conjugate
Inhibition with Antibody, Zymed rabbit antibodies (Zymed rabbit antibodies): No
Reversal with AoHB-peptide #1 (HbAo antibody): No with AoHB-

CC(C)CC(NC(=O)C(Cc1cnc[nH]1)NC(=O)C(NCC1(O)OCC(O)C(O)C1O)C(C)C)C(=O)NC(C(=O)NC(CCCCNC(=O)CCCC(=O)NCCc1c[n+]([Os]23([Cl])([n+]4ccccc4-c4cccc[n+]42)[n+]2ccccc2-c2cccc[n+]23)c[nH]1)C(=O)O)C(C)O (centres unmarked) [Os-DSG-Alc]
Stability lyophilized and frozen ([1]; lyophilized form and frozen in solution at -20 C (40 and 80 uM)): stable
Antibody concentration at which maximum change of inhibition is reached, PAB IS ([2]; conjugate fixed at 5 μM): ~5 µM
Inhibition with Antibody, PAB IS [2]: PAB IS (≦91%)
Amount of PAB DE antibody needed to get close to maximum inhibition, relative to PAB IS and MAB ([3]; conjugate fixed at 5 μM): more than 3 times
Inhibition with Antibody, PAB DE [3]: PAB DE (<87%)
Antibody concentration at which maximum change of inhibition is reached, MAB ([4]; conjugate fixed at 5 μM): ~5 µM
Inhibition with Antibody, MAB [4]: MAB (<78%)
Reversal with BSA-Alc polyhaptan [5]: Yes with BSA-Alc

CC(C)CC(NC(=O)C(Cc1cnc[nH]1)NC(=O)C(NCC1(O)OCC(O)C(O)C1O)C(C)C)C(=O)NC(C(=O)NC(CSC1CC(=O)N(CC2CCC(C(=O)NCCc3c[n+]([Os]45([Cl])([n+]6ccccc6-c6cccc[n+]64)[n+]4ccccc4-c4cccc[n+]45)c[nH]3)CC2)C1=O)C(=O)O)C(C)O (centres unmarked) [Os-SMCC-Alc]
Stability in solution [1]: Degrades in solution.
Inhibition with Antibody, PAB IS [2]: PAB IS (≦92%)
Inhibition with Antibody, PAB DE [3]: PAB DE (≦97%)
Inhibition with Antibody, MAB [4]: MAB (≦50%)
Max inhibition from inhibition curve (HbAlc antibodies): 97%
Reversal with BSA-Alc polyhaptan [5]: Yes with BSA-Alc

CC(C)CC(NC(=O)C(Cc1cnc[nH]1)NC(=O)C(NCC1(O)OCC(O)C(O)C1O)C(C)C)C(=O)NC(C(=O)NC(CCCCNC(=O)CCCCCN1C(=O)CC(SCC(=O)NCCc2c[n+]([Os]34([Cl])([n+]5ccccc5-c5cccc[n+]53)[n+]3ccccc3-c3cccc[n+]34)c[nH]2)C1=O)C(=O)O)C(C)O (centres unmarked) [Os-SATA-Alc]
Stability in solution [1]: Stability similar to SMCC.
Inhibition with Antibody, PAB IS [2]: PAB IS (≦44%)
Max inhibition from inhibition curve (HbAlc antibodies): 44%
Reversal with BSA-Alc polyhaptan [5]: Yes with BSA-Alc

Bis(2,2′-bipyridyl) imidazolyl chloroosmium [Os mediator]
Mediation kinetics relative to ferricyanide (glucose oxidase): about 500 times faster
